In one experiment the target is T1, PIP4K2C (Homo sapiens, UniProt Q8TBX8).
T1 construct: a mixture of lysates from five cancer cell lines; endogenous in cells
T1 sequence (Q8TBX8 1-421): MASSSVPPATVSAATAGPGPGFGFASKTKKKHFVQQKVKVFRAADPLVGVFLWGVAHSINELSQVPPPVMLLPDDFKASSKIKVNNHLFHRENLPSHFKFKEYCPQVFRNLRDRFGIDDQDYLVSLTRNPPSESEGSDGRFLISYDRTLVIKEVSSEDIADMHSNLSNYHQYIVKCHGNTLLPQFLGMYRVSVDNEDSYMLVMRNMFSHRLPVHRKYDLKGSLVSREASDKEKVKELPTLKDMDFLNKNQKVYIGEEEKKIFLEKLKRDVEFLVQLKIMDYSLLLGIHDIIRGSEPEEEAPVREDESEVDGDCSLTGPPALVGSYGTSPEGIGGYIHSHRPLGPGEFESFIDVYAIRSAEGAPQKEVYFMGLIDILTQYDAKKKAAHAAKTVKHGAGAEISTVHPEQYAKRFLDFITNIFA
The experiment in a line: Kinobeads competition binding: PIP4K2C. Particulars: target PIP4K2C. From the text: Supplement 41589_2023_1459_MOESM4_ESM.xlsx, sheet "CATDS matrix" | column: PIP4K2C

For another experiment, the target named is T2, ACVR1 (Homo sapiens, UniProt Q04771).
T2 construct: to maximize the representation of endogenous proteins; endogenous in cells
T2 sequence (Q04771 21-509): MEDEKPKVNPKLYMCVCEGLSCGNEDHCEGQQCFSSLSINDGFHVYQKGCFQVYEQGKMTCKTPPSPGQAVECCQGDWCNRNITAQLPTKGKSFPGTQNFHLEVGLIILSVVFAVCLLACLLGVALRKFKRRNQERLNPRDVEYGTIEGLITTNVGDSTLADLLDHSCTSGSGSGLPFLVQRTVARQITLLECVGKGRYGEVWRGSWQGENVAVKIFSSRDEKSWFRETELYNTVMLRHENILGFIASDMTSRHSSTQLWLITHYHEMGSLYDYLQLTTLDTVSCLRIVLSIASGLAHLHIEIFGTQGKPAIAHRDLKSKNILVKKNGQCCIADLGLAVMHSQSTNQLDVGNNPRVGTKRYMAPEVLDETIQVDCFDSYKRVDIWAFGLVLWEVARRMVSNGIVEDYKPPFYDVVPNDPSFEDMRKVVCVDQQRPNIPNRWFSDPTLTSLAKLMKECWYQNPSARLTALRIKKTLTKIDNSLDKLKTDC
The experiment can be described thus: Kinobeads competition binding: ACVR1.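 Also: target engagement share of this target among all targets at its Kdapp concentration.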 Particulars: target ACVR1. From the text:
Supplement 41589_2023_1459_MOESM4_ESM.xlsx, sheet "CATDS matrix" | column: ACVR1

Another experiment has as its target T3, FRK (Homo sapiens, UniProt P42685).
T3 construct: endogenous in cells
The experiment can be described thus: Kinobeads competition binding: FRK. Particulars: target FRK. From the text: Supplement 41589_2023_1459_MOESM4_ESM.xlsx, sheet "CATDS matrix" | column: FRK

The next experiment concerns the target T4, EPHA4 (Homo sapiens, UniProt P54764).
T4 construct: endogenous in cells
The experiment in a line: Kinobeads competition binding: EPHA4. The settings on record: target EPHA4. From the text: Supplement 41589_2023_1459_MOESM4_ESM.xlsx, sheet "CATDS matrix" | column: EPHA4

For the next experiment, the target named is T5, ADCK1 (Homo sapiens, UniProt Q86TW2).
T5 construct: endogenous in cells
T5 sequence (Q86TW2 1-530): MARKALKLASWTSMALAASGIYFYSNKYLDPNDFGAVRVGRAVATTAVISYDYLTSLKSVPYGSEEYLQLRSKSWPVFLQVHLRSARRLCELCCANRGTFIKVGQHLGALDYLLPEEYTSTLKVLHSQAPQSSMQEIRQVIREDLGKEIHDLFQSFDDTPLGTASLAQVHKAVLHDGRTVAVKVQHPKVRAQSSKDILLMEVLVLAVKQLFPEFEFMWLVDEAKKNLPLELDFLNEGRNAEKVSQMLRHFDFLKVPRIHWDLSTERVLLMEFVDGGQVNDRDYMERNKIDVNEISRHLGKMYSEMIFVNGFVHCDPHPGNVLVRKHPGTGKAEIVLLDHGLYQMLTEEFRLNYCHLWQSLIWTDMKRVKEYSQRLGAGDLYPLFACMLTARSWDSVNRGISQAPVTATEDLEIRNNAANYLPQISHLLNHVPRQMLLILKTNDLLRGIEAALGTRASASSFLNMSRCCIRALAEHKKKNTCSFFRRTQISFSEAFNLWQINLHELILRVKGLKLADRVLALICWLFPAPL
The experiment can be described thus: Kinobeads competition binding: ADCK1. Particulars: target ADCK1. From the text: Supplement 41589_2023_1459_MOESM4_ESM.xlsx, sheet "CATDS matrix" | column: ADCK1

The subject of the next experiment is MAP3K3. The experiment in a line: Kinobeads competition binding: MAP3K3. Further details: species or system human. Particulars: target MAP3K3.
A further experiment relates to NEK3. The experiment in a line: Kinobeads competition binding: NEK3. Further details: species or system human. The settings on record: target NEK3.
A further experiment has as its system CDC42BPG. The experiment in a line: Kinobeads competition binding: CDC42BPG. Further details: species or system human. Particulars: target CDC42BPG.
A further experiment relates to ATR. The experiment in a line: Kinobeads competition binding: ATR. Further details: species or system human. Particulars: target ATR.

T4 sequence (P54764 20-986): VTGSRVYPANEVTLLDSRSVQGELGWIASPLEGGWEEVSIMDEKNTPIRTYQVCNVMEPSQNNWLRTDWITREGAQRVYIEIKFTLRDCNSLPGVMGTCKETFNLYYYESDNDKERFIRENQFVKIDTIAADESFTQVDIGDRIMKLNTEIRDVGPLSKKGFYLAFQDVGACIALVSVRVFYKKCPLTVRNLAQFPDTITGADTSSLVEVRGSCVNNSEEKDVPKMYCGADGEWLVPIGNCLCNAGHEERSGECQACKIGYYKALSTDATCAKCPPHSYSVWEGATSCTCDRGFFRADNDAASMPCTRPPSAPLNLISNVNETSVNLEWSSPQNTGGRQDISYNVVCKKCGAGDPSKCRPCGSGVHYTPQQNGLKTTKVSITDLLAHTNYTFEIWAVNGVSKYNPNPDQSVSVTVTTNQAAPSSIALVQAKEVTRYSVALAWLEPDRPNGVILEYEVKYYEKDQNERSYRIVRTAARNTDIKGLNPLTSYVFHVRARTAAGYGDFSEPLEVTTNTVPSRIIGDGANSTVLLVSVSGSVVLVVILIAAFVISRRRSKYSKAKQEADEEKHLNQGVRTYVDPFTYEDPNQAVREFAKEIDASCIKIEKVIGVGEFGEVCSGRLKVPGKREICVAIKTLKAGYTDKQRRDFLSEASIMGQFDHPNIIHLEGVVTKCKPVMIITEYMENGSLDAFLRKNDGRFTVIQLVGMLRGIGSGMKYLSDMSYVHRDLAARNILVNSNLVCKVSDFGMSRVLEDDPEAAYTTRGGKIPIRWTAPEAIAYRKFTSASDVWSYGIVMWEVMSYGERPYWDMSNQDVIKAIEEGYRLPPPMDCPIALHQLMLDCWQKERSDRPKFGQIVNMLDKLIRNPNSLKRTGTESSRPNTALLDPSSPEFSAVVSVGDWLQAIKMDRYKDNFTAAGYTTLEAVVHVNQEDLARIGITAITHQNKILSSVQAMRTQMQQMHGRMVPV
T3 sequence (P42685 whole entry): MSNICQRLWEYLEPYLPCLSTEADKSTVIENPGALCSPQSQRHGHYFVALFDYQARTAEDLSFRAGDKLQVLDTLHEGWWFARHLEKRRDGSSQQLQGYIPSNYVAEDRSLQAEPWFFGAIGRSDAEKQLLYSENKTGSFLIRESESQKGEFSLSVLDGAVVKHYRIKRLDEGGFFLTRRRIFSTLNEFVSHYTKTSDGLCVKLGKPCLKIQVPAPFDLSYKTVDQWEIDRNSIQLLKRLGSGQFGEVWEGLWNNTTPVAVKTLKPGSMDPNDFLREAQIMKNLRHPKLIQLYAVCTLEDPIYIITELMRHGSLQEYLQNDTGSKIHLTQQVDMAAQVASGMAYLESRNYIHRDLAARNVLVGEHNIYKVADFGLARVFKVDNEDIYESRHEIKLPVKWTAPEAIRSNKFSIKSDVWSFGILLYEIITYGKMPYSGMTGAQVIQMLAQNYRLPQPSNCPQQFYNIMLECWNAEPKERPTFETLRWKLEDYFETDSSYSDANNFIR

On to `CCN1CCN(Cc2ccc(Nc3ncc(F)c(-c4cc(F)c5nc(C)n(C(C)C)c5c4)n3)nc2)CC1` [Abemaciclib], for which the CATDS is listed as 0 at PIP4K2C; 0 at ACVR1; 0 at FRK; 0 on EPHA4; 0.02486 at ADCK1; 0 with MAP3K3. The CATDS with NEK3, in the experiment on CDC42BPG and with ATR was 0 each time.
Consider `N#CC1(c2ccc(NC(=O)c3cccnc3NCc3ccncc3)cc2)CCCC1` [Apatinib], for which the CATDS on PIP4K2C, on ACVR1, on FRK, on EPHA4, on ADCK1 and in the experiment with MAP3K3 was 0 in each case. Moreover, the CATDS with NEK3, with CDC42BPG and in the experiment with ATR was 0 each time.
Take `CN(C)C/C=C/C(=O)Nc1cc2c(Nc3ccc(F)c(Cl)c3)ncnc2cc1O[C@H]1CCOC1` [Afatinib]: the CATDS on PIP4K2C, on ACVR1, at FRK, on EPHA4, at ADCK1 and with ATR was 0 throughout.
Turning to `Nc1ncnc2[nH]c(-c3ccccc3)nc12` [AH5015_KCGS], the CATDS at PIP4K2C, on ACVR1, on FRK, at EPHA4, at ADCK1 and with MAP3K3 was 0 in each case. For the same molecule, the CATDS in the experiment with NEK3, in the experiment on CDC42BPG and with ATR was 0 each time.
In the case of `CCc1cc2c(cc1N1CCC(N3CCOCC3)CC1)C(C)(C)c1[nH]c3cc(C#N)ccc3c1C2=O` [Alectinib], the CATDS on PIP4K2C, at ACVR1, on FRK, on EPHA4, at ADCK1 and in the experiment with MAP3K3 was 0 each time. Also, the CATDS in the experiment on NEK3, in the experiment on CDC42BPG and in the experiment on ATR was 0 each time.

Values taken from PMC11062922 (Nature Chemical Biology, 2023).
